Measurements taken from PubChem BioAssay AID179 (DTP/NCI, 2004).
Calls of active or inactive are those of the source.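 The calls were made as follows: active = compounds giving half or more protection of infected cells from virus-caused growth loss, again on retest; inactive = the rest.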 Where a SMILES comes first, the peptide text is derived from it. [ ]: non-standard residue; d: D form. The star is where a group is joined. pGlu = O=C1CC[CH](C(=O)O)N1; Ac5c = NC1(C(=O)O)CCCC1; Cbz = O=C(OCc1ccccc1)*; Boc = CC(C)(C)OC(=O)*; tBu = CC(C)(C)*

Test system: CEM cells HIV-1 protection, formazan growth assay
Test: NCI AIDS Antiviral Assay
Conditions: for IC50: measured here: growth of uninfected CEM cells
Summary of the method: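 Category rules: moderately active means at least 50% protection on retest, and confirmed active means 100% protection reproducibly. The underlying data came from a formazan growth assay in HIV-1-infected CEM cells.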

Structure (SMILES) | EC50 [µM] | IC50 [µM] | outcome
CCOC(=O)CCCCCNc1nc(Cl)nc(Cl)n1 | > 200 | > 200 | –
O=Nc1sc(=N\O)/c(=N/O)sc1NO | > 200 | 32.4 | –
CC1(O)CC2C(CC1SC1CC3C(CC1(C)O)C3(C)C)C2(C)C (configuration not stated) | > 200 | > 200 | –
COc1c(Cl)cc(C(=CCCCCN(C(=O)C=C(c2cc(Cl)c(OC)c(C(=O)O)c2)c2cc(Cl)c(OC)c(C(=O)O)c2)[C@H]2CC[C@@]3(C)[C@@H](CC[C@@H]4[C@@H]3CC[C@]3(C)[C@@H](C(C)CCCC(C)C)CC[C@@H]43)C2)c2cc(Cl)c(OC)c(C(=O)O)c2)cc1C(=O)O (some centres not stated) | 12.9 | 81.3 | –
O=c1[nH]ncc2c1Sc1cn[nH]c(=O)c1S2 | > 10.7 | > 10.7 | –
Cc1cc(S(=O)(=O)N2CCNC2=O)c(S)cc1Cl | 89.1 | 251 | –
COC(=O)C1(NC(=O)C(Cc2ccccc2)NC(=O)C(NC(=O)C(CCCCNC(=O)OC(C)(C)C)NC(=O)C(Cc2c[nH]c3ccccc23)NC(=O)C(Cc2ccccc2)NC(=O)OCc2ccccc2)C(C)OC(C)(C)C)CCCC1 (configuration not stated) (Cbz-FWK(Boc)T(tBu)F[Ac5c]-OMe; configuration not given here) | > 200 | 115 | –
CCOC(=O)c1c(C)nc(C)c(C(=O)OCC)c1-c1ccc(N(C)C)cc1 | > 200 | 53.7 | –
CCCCCCCCCCCCCCCCCC(=O)OCC(COC(=O)CCCN)OC(=O)CCCN (configuration not stated) | – | – | inactive
CC(=O)c1cc2ccccc2oc1=O | > 138 | > 138 | –
Cc1nnc(N/N=C(/C(=O)C(C#N)c2ccc(Cl)cc2)C(C#N)c2ccc(Cl)cc2)n1N (configuration not stated) | > 537 | 91.2 | –
Cc1cc(C)n(-c2nc(-c3ccccc3)cs2)n1 | > 200 | 72.4 | –
CN(/N=C/c1cccc2cccnc12)c1ccc(Cl)cc1[N+](=O)[O-] | > 200 | 178 | –
COc1ccc2c(ccc3[nH]c4c(C)cnc(NCCCN(C)C)c4c32)c1 | > 2 | 0.132 | –
Cc1cc2nc3nc(N)nc(NS(=O)(=O)c4cc(C)c(Cl)cc4S)n3c2cc1C | 102 | 380 | –
O=S(=O)(O)C(O)CC(O)S(=O)(=O)O (configuration not stated) | > 200 | 102 | –
O=[N+]([O-])/C=C(\CS(=O)(=O)c1ccccc1)c1ccc2c(c1)OCO2 | > 81.3 | 31.6 | –
CC1=C(c2ccccc2)CON(c2ccccc2)C1 | > 53.7 | > 53.7 | –
O=C(CCCNc1nc(-c2ccccc2)cs1)c1cccs1 | > 50.1 | > 50.1 | –
CCOC(=O)Cc1nc(/C(C#N)=C/c2ccco2)[nH]c(=O)c1C#N | – | – | inactive
C(#CP(c1ccccc1)c1ccccc1)P(c1ccccc1)c1ccccc1.C(#CP(c1ccccc1)c1ccccc1)P(c1ccccc1)c1ccccc1.C(#CP(c1ccccc1)c1ccccc1)P(c1ccccc1)c1ccccc1.C(#CP(c1ccccc1)c1ccccc1)P(c1ccccc1)c1ccccc1.[Pt].[Pt] | > 6.92 | 4.79 | –

Structure (SMILES) | EC50 [µM] | IC50 [µM] | outcome
C[Si](C)(C)/C=C\CCNC=O | > 1450 | > 1450 | –
CC1=C(CC/C(C)=C/CCC2(C)CCC([C@H](C)C(=O)O)OO2)C(C)(C)CCC1 (some centres not stated) (tested in a mixture with another compound) | – | – | inactive
O=C1C=C(N2CCOCC2)c2cnccc2C1=O | – | – | inactive
Cc1c(CSCC(=O)O)c(O)c2c(=O)c3c(O)c(CSCC(=O)O)c(O)c4c5c(O)c(CSCC(=O)O)c(O)c6c(=O)c7c(O)c(CSCC(=O)O)c(C)c8c1c2c(c34)c(c78)c65 | > 26.9 | 1.12 | –
c1ccc(-c2ccc(-c3cc4ccccc4[nH]3)cc2)cc1 | > 200 | > 200 | –
CC1(C)N=C(C(=O)c2ccccc2)N(O)C1(O)c1ccccc1 (configuration not stated) | > 200 | 135 | –
CN(C)CCC(/C=C/c1ccccc1)=N\Nc1ccc(Cl)cc1 | > 100 | 10.7 | –
Cc1cn(C2CC(NC(=O)NO[Si](C)(C)C(C)(C)C)C(CO[Si](C)(C)C(C)(C)C)O2)c(=O)[nH]c1=O (configuration not stated) | > 200 | 95.5 | –
COc1ccccc1NC(=O)CC(=O)N1N=C(C)C(N=Nc2ccc(C(=O)O)cc2)C1=O (configuration not stated) | > 200 | > 200 | –
O=C1C(NS(=O)(=O)c2ccccc2)=C(N(Cc2ccccc2)Cc2ccccc2)C(=O)c2ccccc21 | > 200 | 72.4 | –
Cn1c2cccc3nnc4cccc(c4c32)n1C | – | – | inactive
O=C(O)c1cccc(/C=C/c2ccc(N=Nc3cc(S(=O)(=O)O)c4cccnc4c3O)cc2C(=O)O)c1 | 166 | > 200 | –
O=C1CN(CCN2CCCCC2)CC(=O)N2CCCCN12 | > 200 | > 200 | –
N#CCCN(CCN(CCN(C(=O)Nc1ccccc1)c1ccccc1)C(=O)Nc1ccccc1)C(=O)Nc1ccccc1 | > 200 | 9.33 | –
O=C(/C=C/c1ccc(O)c(O)c1O)OCCc1ccccc1 | > 200 | 2.34 | –
CC(NC(=O)C1CCC(=O)N1)C(=O)N1CCCC1C(N)=O (stereo not drawn) ([pGlu]-Ala-Pro-NH2; configuration not given here) | > 200 | > 200 | –
COc1ccc2nc(NC(=O)C(=O)CC(=O)c3ccc([N+](=O)[O-])cc3)sc2c1 | – | – | inactive
COc1cc(C)c(C(=O)Oc2cc(C)c(C(=O)O)c(O)c2C)c(OC)c1C | > 200 | 70.8 | –
N#CC1=C(S)N(C2OC(CO)C(O)C(O)C2O)C(c2ccccc2)=CC1c1cccs1 (configuration not stated) | > 200 | 27.5 | –
CC(=O)/C(=C/c1ccc(Cl)cc1)C(=O)c1ccccc1 | > 66.1 | 11.7 | –
N#CC1=C(O)NC(O)=C(C#N)C1c1ccc(Cl)cc1Cl | > 17 | > 17 | –

Structure (SMILES) | EC50 [µM] | IC50 [µM] | outcome
CO/N=C(\C(=O)Nc1cncs1)c1csc(N)n1 | > 200 | > 200 | –
CC(=O)OCC1OC(n2cnc([N+](=O)[O-])c2Br)C(OC(C)=O)C1OC(C)=O (configuration not stated) | > 200 | 11.7 | –
O=c1cc(O)c2c(ccc3ccccc32)[nH]1 | > 200 | > 200 | –
CC(C)(C)OC(=O)NC(Cc1ccccc1)NC(=O)NC(=O)OCc1ccccc1 (configuration not stated) | > 200 | 112 | –
O=C1C(=Cc2ccco2)C(=O)C2CCCCC12 (configuration not stated) | > 200 | 166 | –
COc1c(OCc2ccccc2)c(OCc2ccccc2)cc(COS(=O)(=O)O)c1-c1c(COS(=O)(=O)O)cc(OCc2ccccc2)c(OCc2ccccc2)c1OC | > 1.58 | > 1.58 | –
CCN(CC)c1cc2oc(=O)cc(C)c2cc1[N+](=O)[O-] | > 95.5 | 40.7 | –
CC(C)(C)C(=O)N1C(C(=O)O)Cc2ccccc2[C@@H]1Cc1ccccc1 (some centres not stated) | > 74.1 | > 74.1 | –
O=C1CCc2cc3c(cc21)CC1(Cc2cc4c(cc2C1)CCCC4)C3 | > 200 | 138 | –
C/C(=N\NC(N)=S)c1ccc(/C(C)=N/NC(N)=S)cc1 | – | – | inactive
CC(C)OP(=O)(OC(C)C)C(=NCCO)NNc1ccc([N+](=O)[O-])cc1 | > 339 | 29.5 | –
COc1ccc2c(c1)OC[C@]1(C)c3cc(O)c(OCc4ccccc4)cc3O[C@H]21 | – | – | inactive
COc1ccc(C2Oc3cc(OC)c(O)cc3[C@@H]2C)cc1 (some centres not stated) | > 66.1 | 6.46 | –
Cc1sc2c(c1C)/C(=N\O)c1cccn1-2 | > 200 | 41.7 | –
S=C1NNC2(C(=S)N1)c1ccccc1-c1ccccc12 | > 200 | 87.1 | –
CC(SS(=O)(=O)O)C(N)=NCc1ccccc1 (configuration not stated) | > 200 | 67.6 | –
CC1(C)OC2O[C@H](C3OC[C@H]4O[C@@H](n5ccc(=O)[nH]c5=O)C(O)[C@H]4N3O)[C@@H]3OC(C)(C)O[C@@H]3C2O1 (some centres not stated) | > 200 | 105 | –
Cn1c(=O)[nH]c2c(c1=O)CCCS2 | > 251 | > 251 | –
CCOP(=O)(OCC)/C(C#N)=C/c1cccn1C | 46.8 | 537 | –
O=C(O)C1OC12CCCCC2 (configuration not stated) | > 200 | > 200 | –
CN(C)c1ccc(/C=C/c2cc[n+]3cc(-c4ccccc4)sc3n2)cc1 | > 1.51 | 0.324 | –

Structure (SMILES) | EC50 [µM] | IC50 [µM] | outcome
O=c1[nH]c2ccc(CC(=S)N3CCOCC3)cc2s1 | > 200 | > 200 | –
O=c1c2ccccc2c(=O)c2c1cc(Cl)c1[nH]c3c([nH]c12)c(Cl)cc1c(=O)c2ccccc2c(=O)c13 | > 7.41 | > 7.41 | –
Oc1[nH]c2ccccc2c1N=NC(=S)Nc1cccc(Cl)c1 | > 200 | 4.57 | –
O=[N+]([O-])c1cccc(-c2ncc3c(n2)-c2ccccc2C3)c1 | – | – | inactive
C[C@@]12C(=O)OC(=O)[C@]1(C)[C@H]1CC[C@@H]2O1 | > 347 | 4.9 | –
NC(CSS(=O)(=O)O)=NCc1cccs1 | > 200 | > 100 | –
C=C1C(=O)SC(=NCc2ccccc2)N1C | > 204 | 132 | –
O=[N+]([O-])c1ccccc1S(=O)(=O)c1ccccc1 | 18.2 | 170 | –
CC[C@H](CCCCC1CC[C@@H]2CC(=O)C[C@H]12)OC (some centres not stated) | > 200 | > 200 | –
C=CCOC(=O)N(C)CC(OC(=O)C(C)(C)C)C1(c2ccc3c(c2)OCO3)C=CC(=O)C=C1 (configuration not stated) | – | – | inactive
CCOC(=O)OC1(c2ccccc2)CCN(C)CC1 | > 200 | > 200 | –
CNc1ncnc2c1nc(NC1CCCC1)n2C1OC(CO)C(O)C1O (configuration not stated) | > 200 | > 200 | –
COC(=O)c1c(C)cccc1C1CN=NC12Cc1cccc(C)c1C2=O (configuration not stated) | > 126 | 81.3 | –
COc1c(Cl)cc(C(=CCCCCN[C@@H]2CC[C@@]3(C)[C@@H](CC[C@@H]4[C@@H]3CC[C@]3(C)[C@@H](C(C)CCCC(C)C)CC[C@@H]43)C2)c2cc(Cl)c(OC)c(C(=O)O)c2)cc1C(=O)O (some centres not stated) | > 200 | > 200 | –
O=c1[nH]c2ccccc2n1C1CCN(CCOc2ccccc2)CC1 | > 200 | 23.4 | –
O=C1COc2cc3c(cc2N1)SCC(=O)N3 | > 42.7 | > 42.7 | –
CCN(CC)CCNCc1cc(Cl)cc2c1OCOC2 | > 200 | > 200 | –
O=C1NC(=O)/C(=C\c2cccc(O)c2)N1 | > 200 | > 200 | –
